From patent US9241928B2, “Antimicrobial compounds” (The General Hospital Corporation, priority 2009, dated 2016) come the findings set out here.

Assay [1] has as its system C. elegans infected with E. faecalis. The assay is described as follows: Dose response time courses in the C. elegans-E. faecalis infection assay. To be noted: Effective Concentration: survival significantly different from mock-treated, p-value <0.05, logrank; read-out: EC. In kind it is in vivo, Caenorhabditis elegans. As for the experimental part: glp-4(bn2); sek-1 (km4) mutant worms were grown to gravid adult stage. 1,000 worms at the L1 stage were grown for 5.2 days at 15° C. on 9-cm plates of SK agar media spread with a lawn of E. coli strain HB101. Embryos from the gravid adults were isolated by a previously described hypochlorite method (see Tan et al., (1999) Proc. Natl. Acad. Sci. USA 96, 715-720) and hatched at 15° C. for 2 days. Approximately 4,500 of the Ll hatchlings were grown on each 9-cm plate of SK-NS agar (SK media with 62.5 U/ml nystatin and 100 μg/ml streptomycin) and with lawns of E. coli HB101. These worms were grown at 25° C. for 52 hours to generate sterile, young adults.
A culture of E. faecalis MMH594 was grown in BHI broth (BD Difco) with 80 μg/ml kanamycin at 37° C. for 6 hours and 100 μl of the culture were spread onto each 9-cm plate of BHI agar containing 80 μg/mlkanamycin. Lawns of E. faecalis were grown at 25° C. for 16 hours and transferred to 15° C. for 8 hours.
Sterile adult worms were resuspended in M9 buffer and washed twice with M9 in a 1:10 ratio to remove E. coli. 8,000 worms were pipetted onto each lawn of E. faecalis and incubated 15 hours at 15° C. After infection, the worms were resuspended in M9 and used as described below. 384-well plates (Corning #3712) were filled with 55 μl media (see below) using a Thermo Scientific MULTIDROP Combi reagent dispenser. 0.3 μl of a candidate compound in DSMO were pin transferred into each well using a CyBio CYBI-Well vario transfer system. The plates were agitated using an Eppendorf MIXMATE at 1,800 rpm for 15 seconds. Using the Union Biometrica Complex Object Parametric Analyzer and Sorter (COPAS) BIOSORT worm sorter according to manufacturer's protocols, 15 of the infected worms were transferred to each well in a total volume of approximately 15 μl. Total volume per well is 70 μl/well with a final composition of the media being 20% BHI, […], 80 μg/ml kanamycin, 62.5 U/ml nystatin, 1% DMSO, and 19% sheath solution (Union Biometrica Part #300-5101-000). Plates were vortexed for 5 seconds, centrifuged at 1000×g for 10 seconds, and sealed with gas permeable membranes (BREATHEASY Diversified). Plates were placed in a single layer on the top shelves in a 26.3° C. incubator at 85% relative humidity (RH) and incubated without agitation for 5 days.
The dose dependence of certain antimicrobial compounds identified by the assay above were studied. These compounds were purchased in a larger amount from commercial sources. For each of these compounds, an infection assay was performed essentially as described above at different concentrations except that SYTOX staining was not used. Instead, bright-field images of the wells were acquired at daily time points and scored manually for worm survival by analyzing worm body positioning. […] All compounds used in this assays were confirmed for their identity and purity by liquid chromatography/mass spectrometry.

In assay [2] the test system is MRSA infection in Caenorhabditis elegans. The assay is described as follows: MRSA infection assay in C. elegans (liquid). The format is in vivo. As to conditions: 6.25 and 12.5 μg/ml, 5 days. The text has this:
To screen/test candidate compounds for their efficacy against Methicillin-resistant Staphylococcus aureus (MRSA) using Caenorhabditis elegans (C. elegans), a liquid high throughput screening assay was developed. In contrast to the Enterococcus faecalis infection assay, where worms are pre-infected with E. faecalis on agar prior to the start of the screening assay and then infected worms are transferred to microtiter plates using the COPAS BioSort robot, the infection of worms with MRSA occurred directly in the liquid medium. This liquid infection protocol with MRSA was developed because the COPAS BioSort, the large particle sorter used to dispense worms into multiwell plates, is a pressurized system that can generate aerosols. Because MRSA is a potentially dangerous pathogen for immune competent individuals, sorting MRSA-infected worms in the COPAS BioSort was deemed to be potentially hazardous.
The MRSA infection assay was carried out by incubating C. elegans with three MRSA strains (i.e., USA100, USA400 and MW2) in 96 or 384-well microtiter plates and assessing whether worms were live or dead after a 5 day incubation.
The MRSA infection assay was performed as follows: Worms were grown on agar using non-pathogenic E. coli as a food source until they reached the L4/young adult stage. A small volume of M9 buffer was added to the agar plates to float worms gently off the food source. The worms were then transferred into a large conical tube and washed 2 times by allowing worms to settle, aspirating the supernatant and adding fresh M9 buffer. 15 worms were then transferred using a COPAS BioSort large particle sorter into a 96-well plate containing […] of M9. […] After the worms were stained for 18 hours, images of the plates were acquired in bright field and red fluorescence channels using a Molecular Devices Discovery-1 or ImageXpress automated microscopy system. The total number of worms was counted in the bright field image and the number of dead animals are determined by positive SYTOX staining. […]

Consider `NNc1ccc2c(Cl)cc(Cl)c(O)c2n1` [Compound 11], for which, in assay [1], the minimal effective concentration was 0.2 µg/mL. In addition, the “survival of MRSA-infected worms (FIG. 4)” value in assay [2] is “resulted in survival of MRSA-infected worms”.
